Assay results reported in patent publication US20230107216A1, “PANTETHEINE DERIVATIVES AND USES THEREOF” (Comet Therapeutics, Inc., priority 2018, published 2023).
Where two headings read alike, the source gives them in different places.

Legend:
[1] = tested on: Coronary artery smooth muscle cells (CASM3C system); assay: BioMAP CASM3C system (IL-1β, TNFα, IFNγ); format: cell-based, human; details: for inhibition at 10 µM: Homo sapiens, 24 h, read-out: % decrease in Thrombomodulin
[2] = tested on: Propionic Acidemia (PA) primary fibroblasts Tsi 6337; assay: Mitochondrial respiration, XFe96 Extracellular Flux Analyzer (OCR/ECAR), PA fibroblasts Tsi 6337; format: cell-based; details: Homo sapiens, Fibroblast, read-out: Increase in Maximal Respiratory Capacity AUC
Method: The effect of the compounds of the present disclosure on mitochondrial respiration was measured with a XFe96 Extracellular Flux Analyzer (Seahorse Bioscience, Agilent Technologies) and Oxygen consumption Rate (OCR) and Extracellular acidification rate (ECAR) determined.
Cell culture and treatments. Primary adherent fibroblasts were cultured in minimum essential medium (MEM) (Gibco, 25030081) supplemented with 2 mM L-Glutamine (Gibco, 25030081), 15% fetal bovine serum (FBS) (Gibco, 26400044) and 1% penicillin/streptomycin (Gibco, 5140122) at 37° C. and 5% CO2. Cells were collected for either passaging or experiment at ˜70-80% confluence. Cells were obtained by trypsinization and seeded at 20000 cells/well in cell culture microplates (Seahorse Bioscience, 101085-004) and allowed to adhere for 16 hours in culture media.
By profiling different primary cells and/or optimizing their culture media or environmental components one can select cell lines and/or conditions that are appropriate for the biological or disease model. In the present example, 24 hours prior to OCR and ECAR profiling, media was changed to Dulbecco's Modified Eagle Medium (DMEM, Agilent Seahorse 103575-100) with the appropriate supplements for the different primary cells (10 mM glucose, 2 mM L-glutamine, 1 mM pyruvate, 10% FBS; 1 mM glucose, 2 mM L-glutamine, 1 mM pyruvate, 10% FBS; 10 mM glucose, 10% FBS; 5 mM glucose 10% FBS; 1 mM glucose 10% FBS). Cells used in this example were: Propionic Acidemia (PA) (GM00371, GM03590 Coriell Institute for Medical Research, Tsi 6337, Tsi 4626, Tsi 3618 Trans-Hit Bio), Methylmalonic Acidemia (MMA) (GM01673, Coriell Institute for Medical Research, Tsi 5224 Trans-Hit Bio), Branched chain ketoacid dehydrogenase kinase (BCKDK) (GM00612, GM00649 Coriell Institute for Medical Research), Subnormal activation of pyruvate dehydrogenase complex (PDH) (GM01503 Coriell Institute for Medical Research), Very long-chain acyl-CoA dehydrogenase (VLCAD) (GM17475), Leigh Syndrome (LS) (GM03672, GM13411 Coriell Institute for Medical Research), Pyruvate Carboxylase Deficiency (PC) (GM00444 Coriell Institute for Medical Research), Glutaric Acidemia-I (GA) (GM10653), Friedreich's Ataxia (FXN) (GM04078 Coriell Institute for Medical Research, Huntington's disease (HD) (GM21756 Coriell Institute for Medical Research), Ornithine Transcarbamylase Deficiency (OTC) (GM12756 Coriell Institute for Medical Research), Kearns-Sayre Syndrome (KSS) (GM06225 Coriell Institute for Medical Research).
One hour before the assay, the cells were washed with freshly prepared unbuffered serum free-Seahorse XF Assay medium (Seahorse Bioscience, North America, USA, 103575-100) with the same supplements as for the previous 24 hour incubation.
After baseline measurements of OCR, cells were challenged with compounds of the present disclosure at different concentrations (10 to 50 μM) or vehicle (DMSO, 0.1%) and a post-compound baseline was recorded. OCR was measured after sequentially adding to each well 1 μg/ml oligomycin (inhibitor of ATP synthase Sigma-Aldrich, 753531), then maximal OCR was determined with carbonyl cyanide 4-(trifluoromethoxy) phenylhydrazone (FCCP, Sigma-Aldrich, C2920), (uncoupler of oxidative phosphorylation) and 0.5 μM of rotenone (Sigma-Aldrich, R8875) plus antimycin A (Sigma-Aldrich, A8674) (inhibitors of mitochondrial complex I and III) for determination of rotenone-antimycin insensitive respiration together with Hoechst for nuclear staining in situ when normalized to cell counts. After the analysis and nuclear staining, the XFp microplate was transferred to the Cytation 5, and the nuclear images were captured, the individual nuclei were identified and counted by BioTek Gen5 software. Data were expressed as pmol of O2 per minute and normalized by nuclear staining and baselined to pre-compound addition.
Assay conditions were as stated below.
Assay specifics on assay conditions are indicated below when readouts were normalized to cell counts. […]

[3] = 10 uM, procedure of Example 832
[4] = PA Tsi 6337, assay condition D (1 mM glucose, 10% FBS)
[5] = PA Tsi 6337, assay condition A (10 mM glucose, 2 mM L-glutamine, 1 mM pyruvate, 10% FBS)

Question: For `C[C@@H](O)CC(=O)CC(=O)SCCNC(=O)CCNC(=O)[C@H](O)C(C)(C)CO` [Compound 42, (2R)-2,4-dihydroxy-N-[2-[(2-[[(5R)-5-hydroxy-3-oxohexanoyl]sulfanyl]ethyl)carbamoyl]ethyl]-3,3-dimethylbutanamide], which “% increase in M-CSF” value [1, 3] is on record?
Answer: ≥10%

Question: What about the “% increase in Proliferation” value [1, 3] of the same compound?
Answer: ≥10%

Question: With `COC(=O)/C=C/C(=O)SCCNC(=O)CCNC(=O)[C@H](O)C(C)(C)COP(=O)(O)O` [Compound 73, methyl (R,E)-4-((2-(3-(2-hydroxy-3,3-dimethyl-4-(phosphonooxy)butanamido)propanamido)ethyl)thio)-4-oxobut-2-enoate] as the compound, how does the activation at 10 µM [2, 4] read?
Answer: ≥ 10%

Question: How did the “% decrease in Proliferation” value ([1]; 1 uM, procedure of Example 832) turn out when `CC(C)(COC(=O)OCC[N+](C)(C)C)[C@@H](O)C(=O)NCCC(=O)NCCSC(=O)CCC(=O)O` [Compound 116, [2-([[(3R)-3-[[2-([2-[(3-carboxypropanoyl)sulfanyl]ethyl]carbamoyl)ethyl]carbamoyl]-3-hydroxy-2,2-dimethylpropoxy]carbonyl]oxy)ethyl]trimethylazanium] was run?
Answer: ≥10%

Question: With `COC(=O)CCC(=O)SCCNC(=O)CCNC(=O)[C@H](O)C(C)(C)COC(C)=O` [Compound 138] as the compound, how does the inhibition at 10 µM ([1]; 10 uM) read?
Answer: ≥ 10%

Question: What does the source list for `COC(=O)CC(SCCNC(=O)CCNC(=O)[C@H](O)C(C)(C)COC(C)=O)C(=O)OC` (stereo partly drawn) [Compound 149, 1,4-dimethyl 2-[(2-[3-[(2R)-4-(acetyloxy)-2-hydroxy-3,3-dimethylbutanamido]propanamido]ethyl)sulfanyl]butanedioate]?
Answer: % increase in IL-6 [1, 3]: ≥10%; inhibition at 10 µM ([1]; 10 uM): ≥ 10%

Question: What does the source list for `CCCCCCC(=O)SCCNC(=O)CCNC(=O)[C@H](O)C(C)(C)CO` [Compound 372, (2R)—N-(2-[[2-(heptanoylsulfanyl)ethyl]carbamoyl]ethyl)-2,4-dihydroxy-3,3-dimethylbutanamide]?
Answer: % decrease in LDLR ([1]; 1 uM, procedure of Example 832): ≥10%; % decrease in VCAM-1 ([1]; 1 uM, procedure of Example 832): ≥10%; inhibition at 10 µM ([1]; 10 uM): ≥ 10%

Question: Which activation at 10 µM [2, 4] does the source give for `COC(=O)C(C)C(=O)SCCNC(=O)CCNC(=O)[C@H](O)C(C)(C)CO` (stereo partly shown) [Compound 405] here?
Answer: ≥ 10%

Question: `COC(=O)CC[C@H](N)C(=O)SCCNC(=O)CCNC(=O)[C@H](O)C(C)(C)CO` [Compound 411] was tested. Which activation at 10 µM [2, 5] did it give?
Answer: ≥ 10%

Question: And the activation at 10 µM [2, 4]?
Answer: ≥ 10%

Question: With `CC(=O)SCCNC(=O)CCNC(=O)[C@H](O)C(C)(C)COC(=O)[C@@H](N)Cc1ccc(O)c(O)c1` [Compound 498, (3R)-3-[(2-[[2-(acetylsulfanyl)ethyl]carbamoyl]ethyl)carbamoyl]-3-hydroxy-2,2-dimethylpropyl (2S)-2-amino-3-(3,4-dihydroxyphenyl)propanoate] as the compound, how does the “% increase in IL-6” value ([1]; 1 uM, procedure of Example 832) read?
Answer: ≥10%

Question: How did the inhibition at 10 µM ([1]; 10 uM) turn out when `CC(=O)SCCNC(=O)CCNC(=O)[C@H](O)C(C)(C)COC(=O)[C@H](C)N` [Compound 502, (3R)-3-[(2-[[2-(acetylsulfanyl)ethyl]carbamoyl]ethyl)carbamoyl]-3-hydroxy-2,2-dimethylpropyl (2S)-2-aminopropanoate] was run?
Answer: ≥ 10%

Question: How did the activation at 10 µM [2, 5] turn out when `CC(C)(CO)[C@@H](O)C(=O)NCCC(=O)NCCSC(=O)C1CCC(=O)N1` (stereo partly drawn) [Compound 1227, S-2-{3-[(R)-2,4-dihydroxy-3,3-dimethylbutyrylamino]propionylamino}ethyl 5-oxo-2-pyrrolidinecarbothioate] was run?
Answer: ≥ 10%

Question: `CCC(C)C(=O)CC(=O)SCCNC(=O)CCNC(=O)[C@H](O)C(C)(C)CO` (stereo partly drawn) [Compound 1240, S-(2-(3-((R)-2,4-dihydroxy-3,3-dimethylbutanamido)propanamido)ethyl) 4-methyl-3-oxohexanethioate] was tested. Which activation at 10 µM [2, 4] did it give?
Answer: ≥ 10%

Question: For `CC(=O)SCCNC(=O)CCNC(=O)[C@H](O)C(C)(C)COC(=O)CCC(=O)O` [Compound 1242, (R)-12-hydroxy-13,13-dimethyl-2,7,11,16-tetraoxo-15-oxa-3-thia-6,10-diazanonadecan-19-oic acid], which activation at 10 µM [2, 5] is on record?
Answer: ≥ 10%

Question: With `C[C@H](CC(=O)SCCNC(=O)CCNC(=O)[C@H](O)C(C)(C)CO)OC(=O)CCC(=O)O` [Compound 1243, 4-{[(2R)-4-[(2-{3-[(2R)-2,4-dihydroxy-3,3-dimethylbutanamido]propanamido}ethyl)sulfanyl]-4-oxobutan-2-yl]oxy}-4-oxobutanoic acid] as the compound, how does the activation at 10 µM [2, 5] read?
Answer: ≥ 10%

Question: For `CC1(CC(=O)SCCNC(=O)CCNC(=O)[C@H](O)C(C)(C)CO)OCCO1` [Compound 1252, (R)—S-(2-(3-(2,4-dihydroxy-3,3-dimethylbutanamido)propanamido)ethyl)-2-(2-methyl-1,3-dioxolan-2-yl)ethanethioate], which activation at 10 µM [2, 5] is on record?
Answer: ≥ 10%

Question: For `CC(=O)OCC(C)(C)[C@@H](OC(C)=O)C(=O)NCCC(=O)NCCSC(C)=O` [Compound 1264, (1R)-3-(acetyloxy)-1-[(2-[[2-(acetylsulfanyl)ethyl]carbamoyl]ethyl)carbamoyl]-2,2-dimethylpropyl acetate], which “% increase in IL-6” value ([1]; 1 uM, procedure of Example 832) is on record?
Answer: ≥10%

Question: `COC(=O)CCC(=O)SCCNC(=O)CCNC(=O)[C@H](OC(=O)CN)C(C)(C)CO` [Compound 1294, methyl 4-[(2-[3-[(2R)-2-[(2-aminoacetyl)oxy]-4-hydroxy-3,3-dimethylbutanamido]propanamido]ethyl)sulfanyl]-4-oxobutanoate] was tested. Which “% decrease in Tissue Factor” value ([1]; 1 uM) did it give?
Answer: ≥10%

Question: What about the “% decrease in uPAR” value ([1]; 1 uM) of the same compound?
Answer: ≥10%

Question: And the “% decrease in M-CSF” value ([1]; 1 uM, procedure of Example 832)?
Answer: ≥10%

Question: And the “% decrease in VCAM-1” value ([1]; 1 uM, procedure of Example 832)?
Answer: ≥10%

Question: What about the “% decrease in HLA-DR” value ([1]; 10 uM) of the same compound?
Answer: ≥10%

Question: And the inhibition at 10 µM ([1]; 10 uM)?
Answer: ≥ 20%

Question: For `COC(=O)CCC(=O)SCCNC(=O)CCNC(=O)[C@H](OC(=O)CNC(C)=O)C(C)(C)CO` [Compound 1298, methyl 4-[(2-[3-[(2R)-2-[(2-acetamidoacetyl)oxy]-4-hydroxy-3,3-dimethylbutanamido]propanamido]ethyl)sulfanyl]-4-oxobutanoate], which “% decrease in uPAR” value ([1]; 1 uM) is on record?
Answer: ≥10%

Question: What about the “% decrease in LDLR” value ([1]; 1 uM, procedure of Example 832) of the same compound?
Answer: ≥10%

Question: And the “% decrease in VCAM-1” value ([1]; 1 uM, procedure of Example 832)?
Answer: ≥10%

Question: And the “% increase in Proliferation” value [1, 3]?
Answer: ≥10%

Question: And the inhibition at 10 µM ([1]; 10 uM)?
Answer: ≥ 20%

Question: Which activation at 10 µM [2, 5] does the source give for `CC(C)(COC(=O)CCC(=O)O)[C@@H](O)C(=O)NCCC(=O)NCCS` [Compound 1310, (R)-4-(3-hydroxy-4-((3-((2-mercaptoethyl)amino)-3-oxopropyl)amino)-2,2-dimethyl-4-oxobutoxy)-4-oxobutanoic acid] here?
Answer: ≥ 10%

Question: For `CC(C)(CO)[C@@H](OC(=O)CCC(=O)O)C(=O)NCCC(=O)NCCS` [Compound 1311, (R)-4-((4-hydroxy-1-((3-((2-mercaptoethyl)amino)-3-oxopropyl)amino)-3,3-dimethyl-1-oxobutan-2-yl)oxy)-4-oxobutanoic acid], which activation at 10 µM [2, 5] is on record?
Answer: ≥ 10%
